Laboratory results published in patent publication US7893074B2, “2, 4-pyrimidinediamines useful in the treatment of neoplastic diseases, inflammatory and immune system disorders” (Novartis AG, priority 2003, dated 2011).
Where two headings read alike, the source gives them in different places.

Key:
[1] = molecular target: Focal Adhesion Kinase (FAK) (Homo sapiens, UniProt Q05397); experiment: FAK assay system (Focal Adhesion Kinase inhibition); assay type: biochemical; conditions: read-out: FAK IC50
Focal Adhesion Kinase (FAK), sequence (Q05397 384-706): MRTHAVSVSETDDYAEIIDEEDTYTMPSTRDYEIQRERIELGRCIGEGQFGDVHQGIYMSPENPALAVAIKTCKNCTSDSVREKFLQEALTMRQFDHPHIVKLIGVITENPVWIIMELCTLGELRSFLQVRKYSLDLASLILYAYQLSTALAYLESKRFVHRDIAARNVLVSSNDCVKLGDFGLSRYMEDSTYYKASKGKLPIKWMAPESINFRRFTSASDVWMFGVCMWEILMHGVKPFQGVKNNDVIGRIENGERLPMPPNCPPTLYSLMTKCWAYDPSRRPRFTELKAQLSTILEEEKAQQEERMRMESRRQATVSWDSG

[2] = tested on: Mouse mammary carcinoma 4T1 cells; experiment: Anchorage-independent tumor cell growth assay; assay type: cell-based
Procedure: Cells are cultured for 2 h and inhibitors are added at various concentrations in a final concentration of 0.1% DMSO. After 48 h, cell growth is assayed with the cell counting kit-8 (Wako Pure Chemical), which uses a water soluble tetrazolium salt WST8. Twenty μL of the reagent is added into each well and cells are further cultured for 2 h. The optical density is measured at 450 nm.

FAK = FAK (Mus musculus, UniProt P34152); experiment: Phos IC50 (phosphorylation); assay type: cell-based
FAK, sequence (P34152 2-1052): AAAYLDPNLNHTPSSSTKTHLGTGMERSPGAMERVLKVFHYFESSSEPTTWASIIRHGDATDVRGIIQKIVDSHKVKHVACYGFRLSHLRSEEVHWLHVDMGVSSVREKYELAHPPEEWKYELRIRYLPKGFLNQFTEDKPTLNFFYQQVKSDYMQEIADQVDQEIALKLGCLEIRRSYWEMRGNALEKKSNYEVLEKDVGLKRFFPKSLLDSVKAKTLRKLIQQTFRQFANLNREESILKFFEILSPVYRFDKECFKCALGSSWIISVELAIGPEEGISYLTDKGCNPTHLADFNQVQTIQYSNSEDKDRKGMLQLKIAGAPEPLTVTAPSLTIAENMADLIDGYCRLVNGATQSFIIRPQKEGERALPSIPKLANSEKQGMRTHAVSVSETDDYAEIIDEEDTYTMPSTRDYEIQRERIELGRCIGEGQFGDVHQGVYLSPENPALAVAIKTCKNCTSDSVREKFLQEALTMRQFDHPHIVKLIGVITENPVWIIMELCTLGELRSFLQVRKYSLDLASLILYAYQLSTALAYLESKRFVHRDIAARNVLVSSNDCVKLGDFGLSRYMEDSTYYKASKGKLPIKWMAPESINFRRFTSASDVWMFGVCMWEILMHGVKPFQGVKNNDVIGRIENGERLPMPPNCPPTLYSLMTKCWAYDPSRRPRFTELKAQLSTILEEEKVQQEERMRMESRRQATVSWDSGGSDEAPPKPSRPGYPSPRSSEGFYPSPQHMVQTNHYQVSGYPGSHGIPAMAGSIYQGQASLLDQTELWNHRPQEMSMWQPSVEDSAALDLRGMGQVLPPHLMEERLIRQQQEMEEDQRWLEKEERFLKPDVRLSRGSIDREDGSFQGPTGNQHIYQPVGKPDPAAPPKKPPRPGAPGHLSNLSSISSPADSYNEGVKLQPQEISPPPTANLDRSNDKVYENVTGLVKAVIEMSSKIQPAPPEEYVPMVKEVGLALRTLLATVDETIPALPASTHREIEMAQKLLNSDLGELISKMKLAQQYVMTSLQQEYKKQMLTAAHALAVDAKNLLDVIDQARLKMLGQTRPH

Row | IC50 [1] | IC50 ([2]; Mus musculus, 4T1) | IC50 (FAK) | IC50 [2] | Structure (SMILES)
1 | 9.2 nM | 790 nM | 430 nM |  | CCCS(=O)(=O)c1ccccc1Nc1nc(Nc2ccc(C(=O)N3CCN(C(C)=O)CC3)cc2OC)ncc1Cl [Example 26-19]
2 | 9 nM | 2000 nM | 320 nM |  | CCCS(=O)(=O)c1ccccc1Nc1nc(Nc2ccc(NCCN3CCOCC3)cc2OC)ncc1Cl [Example 26-16]
3 | 4.4 nM | 760 nM | 1000 nM |  | CCCS(=O)(=O)c1ccccc1Nc1nc(Nc2ccc(F)cc2OC)ncc1Cl [Example 26-30]
4 | 5.5 nM | 570 nM | 2000 nM |  | CCS(=O)(=O)c1ccccc1Nc1nc(Nc2ccc(CN3CCN(C)CC3)cc2OC)ncc1Cl [Example 27-7]
5 | < 1 nM |  | 600 nM | 730 nM | CCCS(=O)(=O)c1ccccc1Nc1nc(Nc2ccc(N3CCC(NC)C3)cc2OC)ncc1Cl (stereo not drawn) [Example 26-25]
6 | 2.9 nM | 180 nM | 10 nM |  | CCCS(=O)(=O)c1ccccc1Nc1nc(Nc2ccc(N3CCN(C(=O)CC)CC3)cc2OC)ncc1Cl [Example 26-8]
7 | 8.8 nM | 470 nM | 600 nM |  | COc1cc(N2CCC(N3CCN(C)CC3)CC2)ccc1Nc1ncc(Cl)c(Nc2ccccc2S(=O)(=O)C2CC2)n1 [Example 30-7]
8 | < 1 nM |  | 100 nM | 280 nM | CCCS(=O)(=O)c1ccccc1Nc1nc(Nc2ccc(N3CCNC(=O)C3)cc2OC)ncc1Cl [Example 26-22]
9 | 3.9 nM | 130 nM | 40 nM |  | COc1cc(N2CCC(N3CCNCC3)CC2)ccc1Nc1ncc(Cl)c(Nc2ccccc2S(=O)(=O)C(C)C)n1 [Example 28-25]
10 | 19 nM | 680 nM | 500 nM |  | COc1cc(N2CCCC(C(N)=O)C2)ccc1Nc1ncc(Cl)c(Nc2ccccc2S(=O)(=O)C2CC2)n1 (stereo not drawn) [Example 30-3]
11 | 17 nM | 560 nM | 600 nM |  | Cc1cc(N2CCOCC2)ccc1Nc1ncc(Cl)c(Nc2ccccc2S(=O)(=O)C(C)C)n1 [Example 28-6]
12 | 4.2 nM | 360 nM | 500 nM |  | CCS(=O)(=O)c1ccccc1Nc1nc(Nc2ccc(N3CCC(N4CCN(C)CC4)CC3)cc2OC)ncc1Cl [Example 27-9]
13 | 11 nM | 950 nM | 500 nM |  | CCCS(=O)(=O)c1ccccc1Nc1nc(Nc2ccc(N3CC(C)N(C(C)=O)C(C)C3)cc2OC)ncc1Cl (stereo not drawn) [Example 26-7]
14 | 8.7 nM | 1900 nM | > 10000 nM |  | CCCS(=O)(=O)c1cc(N2CCN(C)CC2)ccc1Nc1nc(Nc2ccc(F)cc2OC)ncc1Cl [Example 34-8]
15 | 13 nM | 1220 nM | > 10000 nM |  | COc1cc(N2CCOCC2)ccc1Nc1ncc(Cl)c(Nc2ccccc2S(=O)(=O)CCC(C)C)n1 [Example 34-4]
16 | 10 nM | 690 nM | 500 nM |  | COc1cc(N2CCC(C(N)=O)CC2)ccc1Nc1ncc(Cl)c(Nc2ccccc2S(=O)(=O)C(C)C)n1 [Example 28-15]
17 | 7.4 nM | 290 nM | 70 nM |  | COc1cc(N2CCOCC2)ccc1Nc1ncc(Cl)c(Nc2ccccc2S(=O)(=O)C(C)C)n1 [Example 28-3]
18 | 2.3 nM | 220 nM | 40 nM |  | CCCS(=O)(=O)c1ccccc1Nc1nc(Nc2ccc(N3CCN(C(=O)C(C)C)CC3)cc2OC)ncc1Cl [Example 26-9]
19 | 4.6 nM | 370 nM | 400 nM |  | COc1cc(N2CCC(N3CCCCC3)CC2)ccc1Nc1ncc(Cl)c(Nc2ccccc2S(=O)(=O)C(C)C)n1 [Example 28-8]
20 | 14 nM | 3000 nM | > 10000 nM |  | COc1cc(N2CCOCC2)ccc1Nc1ncc(Cl)c(Nc2ccccc2S(=O)(=O)c2ccccc2)n1 [Example 34-6]
21 | 4.2 nM |  | 500 nM | 630 nM | COc1cc(N2CCN(C(C)=O)CC2)ccc1Nc1ncc(Cl)c(Nc2ccccc2S(=O)(=O)C(C)C)n1 [Example 28-11]
22 | 2.3 nM | 110 nM | 900 nM |  | COc1cc(OC)c(OC)cc1Nc1ncc(Cl)c(Nc2ccccc2S(=O)(=O)C(C)C)n1 [Example 28-30]
23 | 14 nM | 470 nM | 60 nM |  | CCS(=O)(=O)c1ccccc1Nc1nc(Nc2ccc(N3CCOCC3)cc2OC)ncc1Cl [Example 27-1]
24 | 27 nM | 2700 nM | > 10000 nM |  | CCC[S+]([O-])c1ccccc1Nc1nc(Nc2ccc(F)cc2OC)ncc1Cl (stereo not drawn) [Example 34-7]
25 | 11 nM | 270 nM | 100 nM |  | CCS(=O)(=O)c1ccccc1Nc1nc(Nc2ccc(N3CCC(N4CCOCC4)CC3)cc2OC)ncc1Cl [Example 27-4]
26 | 3.1 nM | 360 nM | 500 nM |  | COc1cc(N2CCC(N3CCCC3)CC2)ccc1Nc1ncc(Cl)c(Nc2ccccc2S(=O)(=O)C(C)C)n1 [Example 28-9]

The remaining lines, values behind:

Row | Structure (SMILES) | IC50 [1] | IC50 ([2]; Mus musculus, 4T1) | IC50 (FAK) | IC50 [2]
27 | CNS(=O)(=O)c1ccccc1Nc1nc(Nc2cc(OC)ccc2OCCO)ncc1Br [Example 3-60] | 90 nM | 2000 nM | 930 nM | 
28 | CNC(=O)c1cc(N2CCOCC2)ccc1Nc1nc(Nc2ccc(F)cc2OC)ncc1Cl [Example 16-1] | 44 nM | 4000 nM | > 10000 nM | 
29 | CNC(=O)c1cc(OC)ccc1Nc1nc(Nc2ccc(F)cc2OC)ncc1Cl [Example 16-3] | 21 nM | > 10000 nM | 3000 nM | 
30 | CCNC(=O)c1ccccc1Nc1nc(Nc2cc(N3CCC(N4CCCCC4)CC3)ccc2OC)ncc1Cl [Example 9-7] | 17 nM | 260 nM | > 10000 nM | 
31 | CC(C)NS(=O)(=O)c1ccccc1Nc1nc(Nc2ccc(OCCN3CCOCC3)cc2F)ncc1Cl [Example 19-26] | 6.1 nM | 300 nM | 100 nM | 
32 | CNC(=O)c1c(C)cccc1Nc1nc(Nc2ccc(N3CCC(N4CCCCC4)CC3)cc2OC)ncc1Cl [Example 10-2] | 26 nM | 1060 nM | 900 nM | 
33 | CNC(=O)c1cc(F)ccc1Nc1nc(Nc2ccc(N3CCOCC3)cc2OC)ncc1Cl [Example 11-1] | 9 nM | 850 nM | 700 nM | 
34 | CNC(=O)c1ccccc1Nc1nc(Nc2cccc3c2ccn3C)ncc1Cl [Example 7-28] | 34 nM | 150 nM | 1000 nM | 
35 | CNS(=O)(=O)c1ccccc1Nc1nc(Nc2ccccc2OC)ncc1Br [Example 3-6] | 13 nM | 2000 nM | 110 nM | 
36 | COc1cc(N2CCN3CCOC[C@H]3C2)ccc1Nc1ncc(Cl)c(Nc2ccccc2S(=O)(=O)NC(C)C)n1 [Example 19-31] | 1.8 nM | 380 nM | 400 nM | 
37 | CNS(=O)(=O)c1ccccc1Nc1nc(Nc2ccc(OC3CCN(C(C)=O)CC3)cc2OC)ncc1Br [Example 3-74] | 15 nM | 150 nM | 100 nM | 
38 | CNS(=O)(=O)c1ccccc1Nc1nc(Nc2ccc(N(CCOC)CCOC)cc2OC)ncc1Br [Example 3-42] | 29 nM | 300 nM | 350 nM | 
39 | CNS(=O)(=O)c1ccccc1Nc1nc(Nc2cc(N3CCN(C)CC3)ccc2OC)ncc1Br [Example 3-84] | 10 nM | 80 nM | 1000 nM | 
40 | CNS(=O)(=O)c1ccccc1Nc1nc(Nc2cc(C(=O)NC3CCCCC3)ccc2C)ncc1Br [Example 3-23] | 38 nM | 500 nM | 390 nM | 
41 | CNS(=O)(=O)c1ccccc1Nc1nc(Nc2cc(F)ccc2F)ncc1Br [Example 3-77] | 65 nM | 3000 nM | > 10000 nM | 
42 | COc1cc(NC2CCN(C)CC2)ccc1Nc1ncc(Cl)c(Nc2ccccc2S(=O)(=O)NC(C)C)n1 [Example 19-32] | 1.4 nM | 310 nM | 200 nM | 
43 | CNS(=O)(=O)c1ccccc1Nc1nc(Nc2ccc(F)cc2Cl)ncc1Br [Example 3-37] | 39 nM | 2600 nM | 1100 nM | 
44 | CNS(=O)(=O)c1ccccc1Nc1nc(Nc2cccc3c2ccn3CCCN2CCOCC2)ncc1Cl [Example 20-10] | 2 nM | 20 nM | 100 nM | 
45 | CCNC(=O)c1ccccc1Nc1nc(Nc2ccc(N3CCN(C)CC3)cc2OC)ncc1Cl [Example 9-2] | 15 nM | 810 nM | 500 nM | 
46 | CNS(=O)(=O)c1ccccc1Nc1nc(Nc2cc(OCCN3CCOCC3)ccc2OC)ncc1Cl [Example 20-21] | 26 nM | 680 nM | 3000 nM | 
47 | CNS(=O)(=O)c1ccccc1Nc1nc(Nc2cccc(OC)c2OC)ncc1Br [Example 3-14] | 54 nM | 5000 nM | 400 nM | 
48 | CCC(CC)NS(=O)(=O)c1ccccc1Nc1nc(Nc2ccc(OCC3CCCN(C)C3)cc2OC)ncc1Cl (stereo not drawn) [Example 23-5] | 1.9 nM | 590 nM | > 10000 nM | 
49 | CNC(=O)c1cc(N2CCCC2)ccc1Nc1nc(Nc2ccc(OC3CCN(C)CC3)cc2OC)ncc1Cl [Example 15-2] | 21 nM | 660 nM | > 10000 nM | 
50 | COc1c(Nc2ncc(Cl)c(Nc3ccccc3S(=O)(=O)NC(C)C)n2)ccc(OC2CCN(C)CC2)c1F [Example 19-21] | 84 nM | 1710 nM | > 10000 nM | 
51 | CNC(=O)c1ccccc1Nc1nc(Nc2ccc(F)cc2OC)ncc1Br [Example 8-4] | 8 nM | 1100 nM | > 10000 nM | 
52 | CCC(CC)NS(=O)(=O)c1ccccc1Nc1nc(Nc2ccc(OCCN3CCN(C)CC3)cc2OC)ncc1Cl [Example 23-9] | 2.1 nM | 280 nM | 200 nM | 
53 | CNC(=O)c1ccccc1Nc1nc(Nc2ccc(OCCN3CCOCC3)cc2OC)ncc1Cl [Example 7-4] | 5.2 nM | 290 nM | 1000 nM | 
